Reference: patent publication US20250041249A1, “METHOD OF TREATING LIVER STEATOSIS WITH BIOAVAILABLE FORMULATION OF OLEOYLETHANOLAMIDE” (THE REGENTS OF THE UNIVERSITY OF CALIFORNIA, priority 2021, published 2025)

Key:
[1] = tested on: liver inflammation and fibrosis genes; test: Subchronic i.p. OEA in HFD-fed mice: liver gene transcription (real time PCR); assay type: in vivo, mouse; conditions: OEA 5 mg/kg i.p. once daily 6 weeks, versus vehicle controls
Method: 18-week-old mice were randomized into two groups; one received standard chow (6.5% kcal fat, Envigo 2020X, Livermore, CA) and the other a high-fat diet (HFD, 60% kcal fat, D12492, Research Diets, New Brunswick, NJ). Both were available ad libitum for 11 weeks. Body weight and food intake were recorded three times per week. Animals from both groups were randomly assigned to three cohorts: a) free feeding, b) fasting (from 6:00 pm to 12:00 pm on the following day) and c) fasting/refeeding (2 hr access to food after fasting). Mice assigned to the fasting and fasting/refeeding groups were housed in bottom-wired cages to prevent coprophagia.
OEA was dissolved in a vehicle of 95% saline/5% Tween80 (v/v) shortly before experiments. It was administered by intraperitoneal (i.p.) injection at 5 mg/kg in a volume of 10 ml/kg.
We extracted total RNA from liver using TRIzol™ reagent (Thermo Fisher Scientific, Waltham, MS) and purified it with the PureLink™ RNA Mini Kit (Invitrogen, Waltham, MS) as directed by the supplier. Prior to purification, samples were passed through a gDNA Eliminator spin column (Qiagen, Germantown, CA). We quantified RNA using NanoDrop 2000/2000-c spectrophotometer (Thermo Fisher Scientific). cDNA was synthesized from […] of total RNA using the High-Capacity cDNA RT Kit with RNase inhibitor (Applied BioSystems, Foster City, CA) following manufacturer's instructions. First-strand cDNA was amplified using TaqMan™ Universal PCR Master Mixture (Thermo Fisher Scientific) Real-time PCR reactions were performed in 96-well plates using the CFX96™ Real-Time System (Bio-Rad, Hercules, CA). The thermal cycling conditions were as follows: initial denaturation set at 95° C. for 10 min, followed by 45 cycles, where each cycle was performed at 95° C. for 30 s followed by 55° C. for 60 s. ΔCt values were calculated using the geometric mean of three different housekeeping genes, and the relative fold changes over control groups (chow-free feed) were calculated by the 2-44Ct method. Real-time PCR primers and fluorogenic probes were purchased from Applied Biosystems (TaqMan (R) Gene Expression Assays, Foster City, CA). We used TaqMan gene expression assays for mouse Actb (Mm00607939_s1), Hprt (Mm00446968_m1), Gapdh (Mm99999915_g1), Tnfa (Mm00443258_m1), Il1b (Mm00434228_m1), Tgfb1 (Mm_01178820_m1), Ccl2 (Mm_00441242_m1) Hmox1 (Mm_00516005_m1), Col1a1 (Mm_00801666_g1), Nqo1 (Mm_01135606_m1), Nrf1 (Mm01135606_m1), Faah (Mm_00515684_m1), and NapepId (Mm_00724596_m1) (Applied Biosystems, Foster City, CA).
Diet-induced obesity is associated with the development of liver steatosis and fibrosis. We asked whether OEA supplementation might correct these alterations in HFD-fed mice, which are defective in endogenous OEA production. We exposed mice to HFD for 5 weeks, randomized them into two groups, and treated them either with OEA (5 mg/kg, once daily) or vehicle for 6 additional weeks of HFD exposure. As expected, OEA administration reduced body weight gain and lowered circulating total cholesterol and liver transaminase levels (Table 2, FIG. 5). These effects were accompanied by improvement in hepatic lipid profile (FIG. 3). […] Transcription of other relevant genes (Nrf1, Tnfa, Tgf1b, Nqo1) was not affected (FIG. 3h-j).

PPAR-α [2] = target: T1, PPAR-α (Homo sapiens, UniProt Q07869); conditions: PPAR-α agonist; read-out: median effective concentration, EC50; cited from earlier work
T1 sequence (Q07869 1-468): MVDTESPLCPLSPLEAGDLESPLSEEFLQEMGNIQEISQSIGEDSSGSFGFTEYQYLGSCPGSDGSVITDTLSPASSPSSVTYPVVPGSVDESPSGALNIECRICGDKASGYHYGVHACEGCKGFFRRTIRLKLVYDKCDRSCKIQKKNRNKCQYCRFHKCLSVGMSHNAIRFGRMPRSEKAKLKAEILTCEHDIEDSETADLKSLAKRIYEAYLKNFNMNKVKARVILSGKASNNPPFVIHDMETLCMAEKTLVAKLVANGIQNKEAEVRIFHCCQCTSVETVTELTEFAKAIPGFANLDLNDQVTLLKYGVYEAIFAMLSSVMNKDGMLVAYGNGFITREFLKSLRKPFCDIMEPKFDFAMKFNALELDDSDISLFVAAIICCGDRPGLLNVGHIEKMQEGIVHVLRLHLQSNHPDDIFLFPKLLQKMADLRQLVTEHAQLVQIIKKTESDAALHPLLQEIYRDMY

HFD-fed mice = test: Subchronic i.p. OEA in HFD-fed mice: body weight gain and blood chemistry; assay type: in vivo, mouse; conditions: OEA 5 mg/kg i.p. once daily for 6 weeks, mean ± S.E.M
Method: 18-week-old mice were randomized into two groups; one received standard chow (6.5% kcal fat, Envigo 2020X, Livermore, CA) and the other a high-fat diet (HFD, 60% kcal fat, D12492, Research Diets, New Brunswick, NJ). Both were available ad libitum for 11 weeks. Body weight and food intake were recorded three times per week. Animals from both groups were randomly assigned to three cohorts: a) free feeding, b) fasting (from 6:00 pm to 12:00 pm on the following day) and c) fasting/refeeding (2 hr access to food after fasting). Mice assigned to the fasting and fasting/refeeding groups were housed in bottom-wired cages to prevent coprophagia. OEA was dissolved in a vehicle of 95% saline/5% Tween80 (v/v) shortly before experiments. It was administered by intraperitoneal (i.p.) injection at 5 mg/kg in a volume of 10 ml/kg. A comprehensive blood chemistry panel was performed at Antech Diagnostics (Irvine, CA). Diet-induced obesity is associated with the development of liver steatosis and fibrosis. We asked whether OEA supplementation might correct these alterations in HFD-fed mice, which are defective in endogenous OEA production. We exposed mice to HFD for 5 weeks, randomized them into two groups, and treated them either with OEA (5 mg/kg, once daily) or vehicle for 6 additional weeks of HFD exposure. As expected, OEA administration reduced body weight gain and lowered circulating total cholesterol and liver transaminase levels (Table 2, FIG. 5). These effects were accompanied by improvement in hepatic lipid profile (FIG. 3). […] Transcription of other relevant genes (Nrf1, Tnfa, Tgf1b, Nqo1) was not affected (FIG. 3h-j).

PPAR-α [3] = target: T1, PPAR-α; conditions: read-out: affinity constant, KD; cited from earlier work
liver of HFD-fed mice = test: Subchronic i.p. OEA in HFD-fed mice: liver lipid accumulation (Oil Red O, BODIPY, triglyceride kit); assay type: in vivo, mouse; conditions: OEA 5 mg/kg i.p. once daily 6 weeks, versus vehicle controls
Method: 18-week-old mice were randomized into two groups; one received standard chow (6.5% kcal fat, Envigo 2020X, Livermore, CA) and the other a high-fat diet (HFD, 60% kcal fat, D12492, Research Diets, New Brunswick, NJ). Both were available ad libitum for 11 weeks. Body weight and food intake were recorded three times per week. Animals from both groups were randomly assigned to three cohorts: a) free feeding, b) fasting (from 6:00 pm to 12:00 pm on the following day) and c) fasting/refeeding (2 hr access to food after fasting). Mice assigned to the fasting and fasting/refeeding groups were housed in bottom-wired cages to prevent coprophagia. OEA was dissolved in a vehicle of 95% saline/5% Tween80 (v/v) shortly before experiments. It was administered by intraperitoneal (i.p.) injection at 5 mg/kg in a volume of 10 ml/kg. Liver triglycerides were quantified using a colorimetric assay kit (Cayman Chemicals). Briefly, ˜30 mg of right liver lobe were mixed with 0.2 mL of assay buffer and processed following manufacturer's instructions. Oil Red O Staining: We embedded liver samples in a mold, cut them into 7-μm thick sections with a cryostat and fixed them with 4% paraformaldehyde (PFA) for 15 min. After fixation, we immersed the sections in phosphate-buffered saline (PBS) for 2 min, placed them in isopropanol (60%) for 2 min, and incubated them with Oil Red O (60% in isopropanol) for 30 min. […]

CCCCCCCC/C=C\CCCCCCCC(=O)NCCO [OEA, oleoylethanolamide]
liver transcription of C-C Motif Chemokine Ligand 2 (Ccl2) [1]: attenuated | liver transcription of Nqo1 [1]: not affected | liver transcription of Nrf1 [1]: not affected | liver transcription of Tgf1b [1]: not affected | liver transcription of Tnfa [1]: not affected | liver transcription of collagen type I a1 (Col1a1) [1]: attenuated | liver transcription of heme oxygenase 1 (Hmox1) [1]: enhanced | liver transcription of interleukin 1B (1/1b) [1]: attenuated | EC50 (PPAR-α [2]): ~120 nM | A Body weight (HFD-fed mice): 2.27 ± 0.5 g | ALT (SPGT) (HFD-fed mice): 45.4 ± 6.9 IU/L | AST (SGOT) (HFD-fed mice): 86.1 ± 9.9 IU/L | Cholesterol (HFD-fed mice): 173.6 ± 7.6 mg/dL | Glucose (HFD-fed mice): 250.5 ± 19.1 mg/dL | Triglyceride (HFD-fed mice): 81.0 ± 4.9 mg/dL | Kd (PPAR-α [3]): ~40 nM | liver lipid content (Oil Red O and BODIPY staining of liver sections) (liver of HFD-fed mice): reduced | liver triglyceride content (liver of HFD-fed mice): lower
